Laboratory results: patent US5510240A, “Method of screening a peptide library” (The Arizona Board of Regents, priority 1993, dated 1996)
Where no end group is shown, it is not given here.

How the values were obtained:
streptavidin = target: T1, streptavidin (Streptomyces avidinii, UniProt P22629); assay: biotin inhibition of LHPQF-resin staining by streptavidin-alkaline phosphatase; format: binding
T1 construct: purchased Pierce, Rockford, Ill
Procedure: FIG. 8. […] A: 100 nM; B: 10 nM; C: 1 nM; and D: 0.1 nM biotin. Blank beads (β-Ala-aminocaproic acid-resin) were mixed 1:1 with the LHPQF-resin prior to incubating with streptavidin-alkaline phosphatase to serve as an internal negative control.
The LHPQF-resin was then mixed with streptavidin-alkaline phosphatase in the presence of varying concentration of biotin. […] The inhibition study establishes that the HPQ consensus sequence binds to the biotin-binding site of streptavidin.

[1] = UV/VIS irradiation cleavage of ONb linker peptides, HPLC analysis; format: physicochemical; conditions: in water
Procedure: Each peptide was irradiated for 1 and 3 hours with ultraviolet (UV) and visible (VIS) light in 0.3 ml of water or 3/7 mixture of chloroethanol:dichloromethane. A total of 16+16 experiments were run and assayed.
After exposure the supernatant was filtered off, lyophilized and re-dissolved to equal volumes of MeOH (0.3 ml). The products were analyzed on the HPLC.

anti-v-mos = conditions: known property of the commercial antibody; cited from earlier work
[2] = test system: anti-v-mos monoclonal antibody; assay: bead staining with anti-v-mos monoclonal antibody; format: binding, mouse; conditions: antibody 1 ug/ml; ABTS substrate with H2O2, 15 minutes
Procedure: The long v-mos beads were mixed with a thousand fold excess of the short v-mos beads. Two milliliters of the purified anti-v-mos monoclonal antibody (1 μg/ml) in PBS with 0.1% polyoxyethylenesorbitan monolaurate (TWEEN 20®) was added to the mixture of long and short v-mos beads and incubated at room temperature for one hour with gentle mixing. The beads were then washed for one hour with gentle mixing. The beads were then washed on a small polypropylene disposable column (obtained from Isolab) where the beads were retained by the frit. The beads were then mixed with 2 ml of a secondary antibody at 1:2000 dilution for one hour. After washing, the beads were poured into a polystyrene petri dish and allowed to settle. […]
The beads were washed on a small polypropylene disposable column (obtained from Isolab) which retained the beads on a frit. […] The v-mos beads were readily distinguished.
Approximately 230,000 beads were screened with an anti-v-mos alkaline phosphatase conjugate. […] Twenty-four of these beads were physically selected out and the amino acid sequence of eleven of them was determined. […]

[3] = peptide-bead reduction of nitro blue tetrazolium without exogenous enzyme; format: biochemical; conditions: absence of exogenous enzyme
Source text: The peptide library was exposed to the chromogenic substrate nitro blue tetrazolium (NBT) chloride in the absence of exogeneous enzyme under conditions conducive to product formation, and positive reacting beads were identified. These beads were selected and sequenced.

anti-β-endorphin MAb = assay: bead library screening with biotinylated anti-β-endorphin MAb and streptavidin-alkaline phosphatase; format: binding; conditions: recycled pentapeptide library, 16 hours
Procedure: Prior to using the same random peptide library to screen with anti-β-endorphin MAb, all the blue beads that had stained for streptavidin-alkaline phosphatase alone were removed. The remaining beads were then treated with 8M guanidine hydrochloride to remove any bound protein. This recycled library was then mixed with biotinylated anti-β-endorphin MAb (anti-β-endorphin, clone 3-E7, was obtained commercially from Boehringer Mannheim, Indianapolis, Ind.) for 16 hours. After extensive washing, a secondary step with streptavidin-alkaline phosphatase was used to trigger the staining reaction for the ELISA. […] Peptide analogues with various carboxyl terminus of these ligand leads were synthesized and their affinity (Ki) was determined using ^3 H!Leu-enkaphalin (New England Nuclear, Boston, Mass.) as the labelled ligand and the unlabelled peptides as the competing ligand (anti-β-endorphin assay, Section 10.1.2, supra).

T1 sequence (P22629 25-183, species assumed): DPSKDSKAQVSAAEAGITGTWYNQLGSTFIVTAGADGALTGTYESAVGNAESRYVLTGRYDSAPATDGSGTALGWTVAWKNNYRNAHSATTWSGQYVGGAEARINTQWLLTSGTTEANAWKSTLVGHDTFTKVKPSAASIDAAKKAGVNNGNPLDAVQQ

Q: With `O=C(O)CCCC[C@@H]1SC[C@@H]2NC(=O)N[C@@H]21` [biotin] as the compound, how does the “effect on the staining of LHPQF-resin mimotope beads by streptavidin-alkaline phosphatase” value (streptavidin; FIG. 8, 100, 10, 1 and 0.1 nM biotin) read?
A: The value was “concentration-dependent inhibitory effect”.

Q: What about the “staining of the LHPQF-resin” value (streptavidin; biotin at 0.1 nM) of the same compound?
A: Its value is “no effect”.

Q: What about the “staining of the LHPQF-resin” value (streptavidin; biotin at 1.0 nM) of the same compound?
A: The value was “partially inhibited”.

Q: And the “staining of the LHPQF-resin” value (streptavidin; biotin at 10 nM)?
A: The value was “partially inhibited”.

Q: What about the “staining of the LHPQF-resin” value (streptavidin; biotin at 100 nM) of the same compound?
A: The value was “completely blocked”.

Q: For “Fmoc-Trp-Tyr(OBu^t)-Phe-ONb-βAla-ACA-EDA-PepSyn K (WYFX; Fmoc, OBut, ONb-βAla-ACA-EDA-PepSyn K resin linkage) [peptide i]”, which cleavage products [1] is on record?
A: The cleavage products was “cleaved to a single product”.

Q: For GSVYKA [short v-mos peptide], which “affinity of anti-v-mos antibody” value (anti-v-mos) is on record?
A: The value was “negligible affinity”.

Q: With “Gly-Phe-Gly-Ser-Val-Tyr-aminocaproic acid-β-Ala-resin [PAM resin/v-mos peptide beads]” as the compound, how does the “bead color after anti-v-mos antibody and labelled secondary antibody” value [2] read?
A: Its value is “turned dark green”.

Q: With PNNNH (also: bead-bound) [PNNNH-bead] as the compound, how does the “reduction of NBT to dark blue diformazan” value [3] read?
A: Its value is “capable of reducing NBT to a dark blue diformazan pigment”.

Q: For “YGGFA (not fully specified) [tested with carboxyl terminus OH, NH2, βA-OH, βA-NH2]”, which “identification as ligand in anti-β-endorphin MAb bead screening” value (shortened to “identification as ligand”) (anti-β-endorphin MAb) is on record?
A: The value was “identified”.

Q: Which “identification as ligand” value (anti-β-endorphin MAb) does the source give for “YGGFQ (not fully specified) [tested with carboxyl terminus OH, NH2, βA-OH, βA-NH2]” here?
A: The value was “identified”.

Q: With “YGGFT (not fully specified) [tested with carboxyl terminus OH, NH2, βA-OH, βA-NH2]” as the compound, how does the “identification as ligand” value (anti-β-endorphin MAb) read?
A: Its value is “identified”.

Q: With “YGGLQ (not fully specified) [tested with carboxyl terminus OH, NH2, βA-OH, βA-NH2]” as the compound, how does the “identification as ligand” value (anti-β-endorphin MAb) read?
A: The value was “identified”.

Q: For “YGGLS (not fully specified) [tested with carboxyl terminus OH, NH2, βA-OH, βA-NH2]”, which “identification as ligand” value (anti-β-endorphin MAb) is on record?
A: The value was “identified”.

Q: Which “identification as ligand” value (anti-β-endorphin MAb) does the source give for “YGGMV (not fully specified) [tested with carboxyl terminus OH, NH2, βA-OH, βA-NH2]” here?
A: The value was “identified”.
